Experiment: recombinant barcode read abundance after kanamycin selection (control-corrected) (log10(CPM+1)); higher = more efficient recombination; sequences stand for … in AGTGCAGAGAAAATCGGCCAGTTTTCTCTGCCTGCAGTCCGCATGCCGT…AGATTTATGCAGCGGACTGCCTTTCTCCCAAAGTGATAAACCGGACAGTATCATGGACCGGTTTTCCCGGTAATCCGTATTTGCAAGGTTGGTTTCACT; site = the 11-nt target
How it was run: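 A vector carrying a T7-inducible recombinase and the last 73 bp of the bridge RNA received, by Gibson cloning, oligos encoding a promoter, target, barcode and the first 104 bridge RNA bases under J23119. The pooled constructs entered E. coli together with a donor plasmid by electroporation. Selection used chloramphenicol/ampicillin/kanamycin with 0.1 mM IPTG, with chloramphenicol/ampicillin LB agar as the control, each in two replicates. Recombination efficiency is the averaged, control-corrected counts-per-million of barcodes at recombinant junctions, reported as log10(CPM+1).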
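Further: IS621 recombinase and bridge RNA in Escherichia coli cells.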

Row | Sequence | recombinant barcode read abundance (log10)
1 | CACACTCCTTGGGTTCTAACCTGTTGCAG (site CAGACGCCTCT) | 0.193
2 | CACAGTGCTTGGGTTCTAACCTGTTGCCT (site CACAGTGCTAG) | 0.235
3 | CACAGTGCTTGGGTTCTAACCTGTTGCCT (site CAGAGTACTAG) | 0.0936
4 | CACATACCTTGGGTTCTAACCTGTTGCCG (site CACATACCTAC) | 0.0694
5 | CACATACCTTGGGTTCTAACCTGTTGCCG (site CACATACCTCG) | 0.443
6 | CACATACCTTGGGTTCTAACCTGTTGCGT (site CACATACCTAC) | 1.92
7 | CACATACCTTGGGTTCTAACCTGTTGCGT (site CACATACCTCG) | 0.0777
8 | CACATCGCTTGGGTTCTAACCTGTTGCCT (site CACATCGCTAG) | 1.08
9 | CACATCGCTTGGGTTCTAACCTGTTGCCT (site TACTTCGCTAG) | 0.155
10 | CACATGGCTTGGGTTCTAACCTGTTGCCG (site CACAGGGCTCC) | 0.159
11 | CACATGGCTTGGGTTCTAACCTGTTGCCG (site CACATGGCTCG) | 0.259
12 | CACCAACCTTGGGTTCTAACCTGTTGCCT (site CACCAAACTAG) | 0.112
13 | CACCAACCTTGGGTTCTAACCTGTTGCCT (site CACCAACCTAG) | 0.313
14 | CACCAGTCTTGGGTTCTAACCTGTTGCGG (site CACAAGTCTAC) | 0.0664
15 | CACCAGTCTTGGGTTCTAACCTGTTGCGG (site CACCAGTCTCC) | 2.14
16 | CACCCTACTTGGGTTCTAACCTGTTGCCT (site AACCCTACTAG) | 0.04
17 | CACCCTACTTGGGTTCTAACCTGTTGCCT (site CACCCTACTAG) | 1.26
18 | CACCCTACTTGGGTTCTAACCTGTTGCCT (site GACCCTACTAG) | 0.0997
19 | CACCCTACTTGGGTTCTAACCTGTTGCCT (site TACCCTACTAG) | 0.0523
20 | CACCGTCCTTGGGTTCTAACCTGTTGCGT (site CACCGTCCTAC) | 3.03
21 | CACCGTCCTTGGGTTCTAACCTGTTGCGT (site CACCGTCCTAT) | 1.57
22 | CACCTGACTTGGGTTCTAACCTGTTGCCG (site CACCTGACTCG) | 0.599

Row | Sequence | recombinant barcode read abundance (log10)
23 | CACCTGACTTGGGTTCTAACCTGTTGCCG (site CACCTGTCTCG) | 0.0187
24 | CACCTGTCTTGGGTTCTAACCTGTTGCGG (site AGATATACTAA) | 0.0793
25 | CACCTGTCTTGGGTTCTAACCTGTTGCGG (site CACCTGTCTCC) | 1.8
26 | CACGATCCTTGGGTTCTAACCTGTTGCTT (site AGTCGGACTGT) | 0.11
27 | CACGATCCTTGGGTTCTAACCTGTTGCTT (site CACGATCCTAA) | 1.52
28 | CACGCAACTTGGGTTCTAACCTGTTGCTT (site CACGCAACTAA) | 0.476
29 | CACGCAACTTGGGTTCTAACCTGTTGCTT (site GAGGCAACTAA) | 0.888
30 | CACTATCCTTGGGTTCTAACCTGTTGCCT (site CAATATCCTAG) | 0.0585
31 | CACTATCCTTGGGTTCTAACCTGTTGCCT (site CACTATCCTAG) | 2.16
32 | CACTATCCTTGGGTTCTAACCTGTTGCCT (site CAGTATCCTAG) | 0.157
33 | CACTATCCTTGGGTTCTAACCTGTTGCCT (site CATTATCCTAG) | 0.0363
34 | CACTCTGCTTGGGTTCTAACCTGTTGCCT (site CAATCTGCTAG) | 0.617
35 | CACTCTGCTTGGGTTCTAACCTGTTGCCT (site CACTCTGCTAG) | 0.569
36 | CACTCTGCTTGGGTTCTAACCTGTTGCCT (site CAGTCTGCTAG) | 0.0477
37 | CACTCTGCTTGGGTTCTAACCTGTTGCCT (site CATTCTGCTAG) | 0.332
38 | CACTGGGCTTGGGTTCTAACCTGTTGCAG (site CACTGGGCTCT) | 0.791
39 | CACTGGGCTTGGGTTCTAACCTGTTGCAG (site CACTTGGCTCT) | 0.115
40 | CACTGTTCTTGGGTTCTAACCTGTTGCCT (site CACTGATCTAG) | 0.325
41 | CACTGTTCTTGGGTTCTAACCTGTTGCCT (site CACTGCTCTAG) | 0.0508
42 | CACTGTTCTTGGGTTCTAACCTGTTGCCT (site CACTGGTCTAG) | 0.069
43 | CACTGTTCTTGGGTTCTAACCTGTTGCCT (site CACTGTTCTAG) | 0.737
44 | CACTTCCCTTGGGTTCTAACCTGTTGCAT (site CACTTCCCTAA) | 0.0158

Row | Sequence | recombinant barcode read abundance (log10)
45 | CACTTCCCTTGGGTTCTAACCTGTTGCAT (site CACTTCCCTAC) | 0.106
46 | CACTTCCCTTGGGTTCTAACCTGTTGCAT (site CACTTCCCTAG) | 0.316
47 | CACTTCCCTTGGGTTCTAACCTGTTGCAT (site CACTTCCCTAT) | 1.93
48 | CACTTCCCTTGGGTTCTAACCTGTTGCGA (site AGTGAAGCTGT) | 0.222
49 | CACTTCCCTTGGGTTCTAACCTGTTGCGA (site CACTTCCCTTC) | 0.492
50 | CACTTCCCTTGGGTTCTAACCTGTTGCGT (site CACTTCCCTAA) | 0.0684
51 | CACTTCCCTTGGGTTCTAACCTGTTGCGT (site CACTTCCCTAC) | 2.4
52 | CACTTCCCTTGGGTTCTAACCTGTTGCGT (site CACTTCCCTAG) | 0.402
53 | CACTTCCCTTGGGTTCTAACCTGTTGCGT (site CACTTCCCTAT) | 1.5
54 | CACTTGGCTTGGGTTCTAACCTGTTGCCT (site CACTTGACTAG) | 0.0371
55 | CACTTGGCTTGGGTTCTAACCTGTTGCCT (site CACTTGCCTAG) | 0.366
56 | CACTTGGCTTGGGTTCTAACCTGTTGCCT (site CACTTGGCTAG) | 0.134
57 | CACTTGGCTTGGGTTCTAACCTGTTGCCT (site CACTTGTCTAG) | 0.0944
58 | CAGAACACTTGGGTTCTAACCTGTTGCCT (site AAGAACACTAG) | 0.0991
59 | CAGAACACTTGGGTTCTAACCTGTTGCCT (site CAGAACACTAG) | 1.94
60 | CAGAACACTTGGGTTCTAACCTGTTGCCT (site GAGAACACTAG) | 0.198
61 | CAGAACACTTGGGTTCTAACCTGTTGCCT (site TAGAACACTAG) | 0.171
62 | CAGCCCTCTTGGGTTCTAACCTGTTGCCT (site CAGCCCTCTAG) | 2.59
63 | CAGCCCTCTTGGGTTCTAACCTGTTGCCT (site CCGCCCTCTAG) | 0.883
64 | CAGCCCTCTTGGGTTCTAACCTGTTGCCT (site CGGCCCTCTAG) | 0.0354
65 | CAGCCCTCTTGGGTTCTAACCTGTTGCCT (site CTGCCCTCTAG) | 0.315
66 | CAGCTACCTTGGGTTCTAACCTGTTGCCT (site CAGCTACCTAG) | 1.73

Row | Sequence | recombinant barcode read abundance (log10)
67 | CAGCTACCTTGGGTTCTAACCTGTTGCCT (site CCGCTACCTAG) | 0.334
68 | CAGCTACCTTGGGTTCTAACCTGTTGCCT (site CGGCTACCTAG) | 0.226
69 | CAGCTACCTTGGGTTCTAACCTGTTGCCT (site CTGCTACCTAG) | 0.585
70 | CAGGACTCTTGGGTTCTAACCTGTTGCTT (site CAGCACTCTTA) | 0.0832
71 | CAGGACTCTTGGGTTCTAACCTGTTGCTT (site CAGGACTCTAA) | 2.85
72 | CAGGCGGCTTGGGTTCTAACCTGTTGCCT (site CAGGCGACTAG) | 0.117
73 | CAGGCGGCTTGGGTTCTAACCTGTTGCCT (site CAGGCGCCTAG) | 0.254
74 | CAGGCGGCTTGGGTTCTAACCTGTTGCCT (site CAGGCGGCTAG) | 0.829
75 | CAGGCGGCTTGGGTTCTAACCTGTTGCCT (site CAGGCGTCTAG) | 0.0685
76 | CAGGGTCCTTGGGTTCTAACCTGTTGCGG (site CAGGGTCCTCC) | 3.55
77 | CAGGGTCCTTGGGTTCTAACCTGTTGCGG (site TAGGGTTCTCC) | 0.0367
78 | CAGTCAGCTTGGGTTCTAACCTGTTGCCT (site CAGTCAGCTAG) | 1.16
79 | CAGTCAGCTTGGGTTCTAACCTGTTGCCT (site GTAAGGACTCC) | 0.0866
80 | CAGTCCTCTTGGGTTCTAACCTGTTGCTG (site CAGTCCTCTCA) | 2.23
81 | CAGTCCTCTTGGGTTCTAACCTGTTGCTG (site CCGTCCTCTCA) | 0.0321
82 | CAGTGAACTTGGGTTCTAACCTGTTGCCT (site CAGTGAACTAG) | 1.55
83 | CAGTGAACTTGGGTTCTAACCTGTTGCCT (site CCGTGAACTAG) | 0.181
84 | CAGTGAACTTGGGTTCTAACCTGTTGCCT (site CGGTGAACTAG) | 0.0595
85 | CAGTGAACTTGGGTTCTAACCTGTTGCCT (site CTGTGAACTAG) | 0.0273
86 | CAGTGGACTTGGGTTCTAACCTGTTGCCT (site CAATGGACTAG) | 0.961

Source: the supplement of paper PMC11208160
